Some results are limits rather than exact numbers.

One test addresses recombinant human SYK (GST-hSYK fusion protein) (Homo sapiens, UniProt P43405). The test is described as follows: biochemical. The following applies: rhSYK Activity, Table 33-A.
Description: Homogeneous Time-Resolved Fluorescence (HTRF) Assay for the Recombinant Human SYK Enzyme:
Turning to `CCOC(=O)[C@H]1CC[C@@](O)(c2ncc(-c3cccc(Nc4nccc(C(F)(F)F)n4)c3)s2)CC1` [Example 33A-26], the IC50 lay within 100 to 1000 nM.

With `Cc1cc(Nc2nccc(C(C)C)n2)cc(-c2cnc([C@]3(O)CC[C@@H](C(=O)OC(C)(C)C)CC3)s2)c1` [Example 33A-29], the IC50 lay within 100 to 1000 nM. On to `Cc1cc(Nc2nccc(C)n2)cc(-c2cnc([C@]3(O)CC[C@@H](C(=O)O)CC3)s2)c1` [Example 33A-30], for which the IC50 was < 100 nM. The same measure, in the same setting: then `Cc1cc(Nc2nccc(C)n2)cc(-c2cnc([C@]3(O)CC[C@H](C(=O)O)CC3)s2)c1` [Example 33A-31], with < 100 nM; and `Cc1cc(Nc2nccc(C)n2)cc(-c2cnc(C3(O)CCC(CC(=O)O)CC3)s2)c1` (stereo not drawn) [Example 33A-32], with < 100 nM; and `Cc1cc(Nc2nccc(OC(C)C)n2)cc(-c2cnc([C@]3(O)CC[C@@H](C(=O)OC(C)(C)C)CC3)s2)c1` [Example 33A-34], with 100 to 1000 nM.

As for `COc1ccnc(Nc2cc(C)cc(-c3cnc(C4(O)CCC(C(=O)O)CC4)s3)c2)n1` (stereo not drawn) [Example 33A-35], the IC50 is < 100 nM. Same read-out and setting: then `COc1ccnc(Nc2cc(C)cc(-c3cnc([C@]4(O)CC[C@](C)(C(=O)O)CC4)s3)c2)n1` [Example 33A-38], with < 100 nM; and `COC(=O)C1CCC(O)(c2ncc(-c3cc(C)cc(Nc4ncc(F)c(C5CC5)n4)c3)s2)CC1(C)C` (stereo not drawn) [Example 33A-39], with < 100 nM; and `Cc1cc(Nc2ncc(F)c(C3CC3)n2)cc(-c2cnc(C3(O)CCC(C(=O)O)C(C)(C)C3)s2)c1` (stereo not drawn) [Example 33A-40], with < 100 nM. As to `Cc1cc(Nc2ncc(F)cn2)cc(-c2cnc(C3(O)CCC(C(=O)O)C(C)(C)C3)s2)c1` (stereo not drawn) [Example 33A-45], the IC50 is 100 to 1000 nM.

On to `CC(C)(O)c1cc(Nc2nccc(C(F)(F)F)n2)cc(-c2cnc(C3(O)CCC(C(=O)O)C(C)(C)C3)s2)c1` (stereo not drawn) [Example 33A-48], for which the IC50 was < 100 nM. In the case of `COC(=O)C1CCC(O)(c2ncc(-c3cc(COC(C)=O)cc(Nc4nccc(C(F)(F)F)n4)c3)s2)CC1(C)C` (stereo not drawn) [Example 33A-49], the IC50 was < 100 nM. Still for that read-out and setting: next, `COC(=O)C1CCC(O)(c2ncc(-c3cc(Nc4nccc(C(F)(F)F)n4)cc(C(F)F)c3)s2)CC1(C)C` (stereo not drawn) [Example 33A-55]: 100 to 1000 nM.

`CC1(C)CC(O)(c2ncc(-c3cc(Nc4nccc(C(F)(F)F)n4)cc(C(F)F)c3)s2)CCC1C(=O)O` (stereo not drawn) [Example 33A-56]: the IC50 was < 100 nM. Still for that read-out and setting: then `COC(=O)C1CCC(O)(c2ncc(-c3cc(Nc4nccc(C(F)(F)F)n4)cc(C4CC4)c3)s2)CC1(C)C` (stereo not drawn) [Example 33A-61], with < 100 nM; and `COC(=O)C1CCC(O)(c2ncc(-c3cccc(Nc4nccc(C(F)(F)F)n4)c3)s2)CC1(C)C` (stereo not drawn) [Example 33A-65], with 100 to 1000 nM. Regarding `COC(=O)C1CCC(O)(c2ncc(-c3cc(C)cc(Nc4nccc(C)n4)c3)s2)CC1(C)C` (stereo not drawn) [Example 33A-69], the IC50 was < 100 nM. The same measure, in the same setting: then `COC(=O)C1CCC(O)(c2ncc(-c3cc(C)cc(Nc4nccc(C5CC5)n4)c3)s2)CC1(C)C` (stereo not drawn) [Example 33A-70], with < 100 nM; and `Cc1cc(Nc2nccc(C3CC3)n2)cc(-c2cnc(C3(O)CCC(C(=O)O)C(C)(C)C3)s2)c1` (stereo not drawn) [Example 33A-71], with < 100 nM. Still for that read-out and setting: then `Cc1cc(Nc2nccc(C(F)(F)F)n2)cc(-c2cnc(C3(O)CCC(C(=O)O)C(C)(C)C3C)s2)c1` (stereo not drawn) [Example 33A-75], with < 100 nM.

The test is the same for the next values; noted with them: rhSYK Activity, Table 33B.
`Cc1cc(Nc2nccc(C(F)(F)F)n2)cc(-c2cnc(C3(O)CC(C(=O)O)C3)s2)c1` (stereo not drawn) [Example 33B-1]: the IC50 is < 100 nM. With `Cc1cc(Nc2nccc(C(F)(F)F)n2)cc(-c2cnc(C3(O)CCCC(C(=O)O)C(C)(C)C3)s2)c1` (stereo not drawn) [Example 33B-11], the IC50 was < 100 nM.

As to `Cc1cc(Nc2nccc(C)n2)cc(-c2cnc(C3(O)CCC(C(=O)O)C(C(C)C)C3)s2)c1` (stereo not drawn) [Example 33B-35], the IC50 is < 100 nM.

As to `Cc1cc(Nc2nccc(C)n2)cc(-c2cnc(C3(O)CCC(C(=O)O)C(c4ccccc4)C3)s2)c1` (stereo not drawn) [Example 33B-37], the IC50 was < 100 nM.

Staying with this test, now noted: rhSYK Activity, Table 33C.
Regarding `Cc1cc(Nc2nccc(C(F)(F)F)n2)cc(-c2cnc(C3(O)CC4(CC(C(=O)O)C4)C3)s2)c1` (stereo not drawn) [Example 33C-1], the IC50 is < 100 nM. Still for that read-out and setting: then `Cc1cc(Nc2nccc(C(F)(F)F)n2)cc(-c2cnc(C3(O)CC4CCC(C3)C4C(=O)O)s2)c1` (stereo not drawn) [Example 33C-2], with < 100 nM; and `Cc1cc(Nc2nccc(C(F)(F)F)n2)cc(-c2cnc(C3(O)C4CCCC3CC(C(=O)O)C4)s2)c1` (stereo not drawn) [Example 33C-3], with < 100 nM. On the same count and under the same terms, then `Cc1cc(Nc2nccc(C(F)(F)F)n2)cc(-c2cnc(C3(O)CC[C@H]4C(C(=O)O)[C@H]43)s2)c1` (stereo partly drawn) [Example 33C-6], with < 100 nM; and `Cc1cc(Nc2nccc(C(F)(F)F)n2)cc(-c2cnc(C3(O)C[C@@H]4C(C(=O)O)[C@@H]4C3)s2)c1` (stereo partly drawn) [Example 33C-9], with < 100 nM. The same measure, in the same setting: next, `CCOC(=O)C1[C@H]2CC(O)(c3ncc(-c4cc(C)cc(Nc5nccc(C(F)(F)F)n5)c4)s3)C[C@@H]12` (stereo partly drawn) [Example 33C-11]: < 100 nM; `Cc1cc(Nc2nccc(C(F)(F)F)n2)cc(-c2cnc(C3(O)CNC3)s2)c1` [Example 33C-13]: < 100 nM.

As for `Cc1cc(Nc2nccc(C(F)(F)F)n2)cc(-c2cnc(C3(O)CCN(c4ncccc4C(=O)O)CC3)s2)c1` [Example 33C-15], the IC50 is < 100 nM. For `CCOC(=O)c1cccnc1N1CCC(O)(c2ncc(-c3cc(C)cc(Nc4nccc(C(F)(F)F)n4)c3)s2)CC1` [Example 33C-16], the IC50 fell in the range of 100 to 1000 nM. The same measure, in the same setting: then `Cc1cc(Nc2nccc(C)n2)cc(-c2cnc(C3(O)CCC4(CC3)OCCO4)s2)c1` [Example 33C-17], with < 100 nM; and `Cc1cc(Nc2nccc(C)n2)cc(-c2cnc(C3(O)CC4CCC3CC4C(=O)O)s2)c1` (stereo not drawn) [Example 33C-18], with < 100 nM.

Still in this test, the particulars now being: rhSYK Activity, Table 33D.
Turning to `Cc1cc(Nc2nccc(C(F)(F)F)n2)cc(-c2cnc(C(C)(O)CCC(C)(C)C(=O)O)s2)c1` (stereo not drawn) [Example 33D-1], the IC50 is < 100 nM.

Turning to `COC(=O)C(C)(C)CCC(C)(O)c1ncc(-c2cc(C)cc(Nc3nccc(C(F)(F)F)n3)c2)s1` (stereo not drawn) [Example 33D-4], the IC50 is < 100 nM. Turning to `Cc1cc(Nc2nccc(C(F)(F)F)n2)cc(-c2cnc(C(C)(O)COC(C)(C)C(=O)O)s2)c1` (stereo not drawn) [Example 33D-7], the IC50 was < 100 nM.

Take `COC(=O)C(C)(C)OCC(C)(O)c1ncc(-c2cc(C)cc(Nc3nccc(C(F)(F)F)n3)c2)s1` (stereo not drawn) [Example 33D-8]: the IC50 was < 100 nM. Same read-out and setting: next, `Cc1cc(Nc2nccc(C(F)(F)F)n2)cc(-c2cnc(C(C)(O)CC(C)(C)C(=O)O)s2)c1` (stereo not drawn) [Example 33D-9]: < 100 nM; `Cc1cc(Nc2nccc(C(F)(F)F)n2)cc(-c2cnc(C(C)(O)CCC(=O)O)s2)c1` (stereo not drawn) [Example 33D-10]: < 100 nM; `Cc1cc(Nc2nccc(C(F)(F)F)n2)cc(-c2cnc(C(C)(O)c3ccccc3OCC(=O)O)s2)c1` (stereo not drawn) [Example 33D-11]: < 100 nM. For the compound `Cc1cc(Nc2nccc(C(F)(F)F)n2)cc(-c2cnc(C(C)(O)c3ccc(OCC(=O)O)cc3)s2)c1` (stereo not drawn) [Example 33D-12], the IC50 is < 100 nM. Same read-out and setting: then `Cc1cc(Nc2nccc(C(F)(F)F)n2)cc(-c2cnc(C(C)(O)c3ccc(OC(C)C(=O)O)cc3)s2)c1` (stereo not drawn) [Example 33D-13], with < 100 nM; and `COC(=O)c1ccc(C(C)(O)c2ncc(-c3cc(C)cc(Nc4nccc(C(F)(F)F)n4)c3)s2)cc1` (stereo not drawn) [Example 33D-17], with < 100 nM. The same measure, in the same setting: next, `Cc1cc(Nc2nccc(C(F)(F)F)n2)cc(-c2cnc(C(C)(O)Cc3ccc(C(=O)O)cc3)s2)c1` (stereo not drawn) [Example 33D-18]: < 100 nM; `Cc1cc(Nc2nccc(C(F)(F)F)n2)cc(-c2cnc(C(C)(O)c3c(C)nn(CCC(=O)O)c3C)s2)c1` (stereo not drawn) [Example 33D-19]: < 100 nM; `Cc1cc(Nc2nccc(C(F)(F)F)n2)cc(-c2cnc(C(C)(O)c3ccc(C(=O)O)s3)s2)c1` (stereo not drawn) [Example 33D-20]: < 100 nM. `Cc1cc(Nc2nccc(C(F)(F)F)n2)cc(-c2cnc(C(O)C(C)(C)N3CCC(C(=O)O)CC3)s2)c1` (stereo not drawn) [Example 33D-23]: the IC50 is < 100 nM. `Cc1cc(Nc2nccc(C(F)(F)F)n2)cc(-c2cnc(C(O)(c3ccc(/C=C/C(=O)O)cc3)C3CC3)s2)c1` (stereo not drawn) [Example 33D-24]: the IC50 is < 100 nM. Still for that read-out and setting: next, `Cc1cc(Nc2nccc(C(F)(F)F)n2)cc(-c2cnc(C(O)(CCCC(=O)O)c3ccncc3)s2)c1` (stereo not drawn) [Example 33D-25]: < 100 nM.

Still in this test, the particulars now being: rhSYK Activity, Table 36A.
With `CCOC(=O)C1CC=C(c2ncc(-c3cccc(Nc4nccc(C(F)(F)F)n4)c3)s2)CC1` (stereo not drawn) [Example 36A-1], the IC50 lay within 100 to 1000 nM.

As for `Cc1cc(Nc2nccc(C(F)(F)F)n2)cc(-c2cnc(C3=CCC(C(=O)O)CC3)s2)c1` (stereo not drawn) [Example 36A-3], the IC50 was < 100 nM. As for `Cc1cc(Nc2nccc(C(F)(F)F)n2)cc(-c2cnc(C3=CC(=O)CC3)s2)c1` [Example 36A-6], the IC50 is < 100 nM.

As to `Cc1cc(Nc2nccc(C(F)(F)F)n2)cc(-c2cnc(C3=CC(=O)CCC3)s2)c1` [Example 36A-7], the IC50 is < 100 nM. As for `Cc1cc(Nc2nccc(C(F)(F)F)n2)cc(-c2cnc(C3=CC(=O)CCCC3)s2)c1` [Example 36A-9], the IC50 was < 100 nM. The same measure, in the same setting: then `COC(=O)C1CCC(c2ncc(-c3cc(C)cc(Nc4nccc(C(F)(F)F)n4)c3)s2)=CC1(C)C` (stereo not drawn) [Example 36A-11], with 100 to 1000 nM; and `COC(=O)C1CC=C(c2ncc(-c3cc(C)cc(Nc4nccc(C(F)(F)F)n4)c3)s2)CC1(C)C` (stereo not drawn) [Example 36A-13], with 100 to 1000 nM.

Staying with this test, now noted: rhSYK Activity, Table 36B.
As to `Cc1cc(Nc2nccc(C(F)(F)F)n2)cc(-c2cnc(C3CCNC(=O)C3)s2)c1` (stereo not drawn) [Example 36B-1], the IC50 is < 100 nM.

For the compound `Cc1cc(Nc2nccc(C(F)(F)F)n2)cc(-c2cnc(C3=CCNC(=O)CC3)s2)c1` [Example 36B-2], the IC50 was < 100 nM. On the same count and under the same terms, next, `Cc1cc(Nc2nccc(C(F)(F)F)n2)cc(-c2cnc(C3CCCNC(=O)C3)s2)c1` (stereo not drawn) [Example 36B-3]: < 100 nM; `Cc1cc(Nc2nccc(C(F)(F)F)n2)cc(-c2cnc(C3CCNC(=O)CC3)s2)c1` (stereo not drawn) [Example 36B-4]: < 100 nM.

A word on the IC50: it is the point on the concentration scale where inhibition reaches its midpoint.

The record behind these values is US8551984B2, “Aminopyrimidines as SYK inhibitors” (Merck Sharp & Dohme Corp., priority 2009, dated 2013).
